Assays:
[1] = system: CA1 hippocampal region; assay: LTP of fEPSPs in CA1 of acute hippocampal slices exposed to protofibrillar Aβ42; type: cell-based, mice; settings: 50 nM VO-OHpic 1 hour before addition of 1 μM Aβ42
Method: (§1) Mice were anesthetized with sodium pentothal (20 mg/kg ip) and decapitated. The brain was rapidly removed to ice-cold, oxygenated, dissection solution. Coronal slices (300 μm) were made with a vibratome (LEICA VT1200S) and slices were moved to a recovery chamber containing aCSF at room temperature for at least 1.5 hour before recording.
A concentric bipolar platinum-iridium stimulation electrode and a low-resistance glass recording microelectrode filled with aCSF (3-4 MΩ resistance) were placed in CA1 stratum radiatum to record the extracellular field excitatory postsynaptic potentials (fEPSPs). For each slice, an input-output curve was recorded to compare basal synaptic transmission at different conditions. This curve was also used to set the baseline fEPSP at ≈30% (for LTP experiments) or ≈50% (for LTD experiments) of maximal slope. Baseline stimulation was delivered every 15 seconds (0.01 ms duration pulses) for at least 20 minutes before beginning the experiment to ensure stability of the response. LTP was induced by using θ-burst stimulation (4 pulses at 100 Hz, with the bursts repeated at 5 Hz and each tetanus including three 10-burst trains separated by 15 seconds). LTD was induced using 900 pulses at 1 Hz. Responses were recorded for 1 hour after induction of LTP or LTD. […]

[2] = system: CA1 individual neurons; assay: Whole-cell LTP (pairing protocol) in CA1 neurons of organotypic slices with APPswe/lnd-EGFP expression; type: cell-based, rat; settings: VO-OHpic 26-48 hours
Method: The different versions of APP (APPwt, APPswe/lnd APPMV) and EGFP were co-expressed using an internal ribosomal entry site (IRES) construct. The EGFP-tagged versions of PTEN have been described (Jurado, et al. (2010) EMBO J. 29:2827-2840). All constructs were prepared in pSinRep5 for expression using Sindbis virus. Recombinant proteins were expressed in hippocampal CA1 pyramidal neurons from organotypic slice cultures. Organotypic hippocampal slices were prepared from postnatal day 5-7 rats and cultured during 6-8 days.
The external solution (aCSF) contained 119 mM NaCl, 2.5 mM KCl, 1 mM NaH2PO4, 11 mM glucose, 26 mM NaHCO3, 4 mM MgCl2, 4 mM CaCl2, 100 μM picrotoxin and 2 μM 2-chloroadenosine, pH 7.4, and was gassed with 95% O2 and 5% CO2. Patch recording pipettes (4-7 MO) were filled with internal solution containing 115 mM CsMeSO3, 20 mM CsCl, 10 mM HEPES, 2.5 mM MgCl2, 4 mM Na2-ATP, 0.4 mM Na-GTP, 10 mM sodium phosphocreatine and 0.6 mM EGTA, pH 7.25. Bipolar stimulating electrodes were placed over Schaffer collateral fibers between 250 and 300 μm from the CA1 recorded cells, and synaptic responses were evoked with single voltage pulses (200 μs, up to 30 V). Responses were collected at −60 mV and +40 mV and averaged over 50-100 trials. LTP was induced using a pairing protocol by stimulating Schaffer collateral fibers at 3 Hz for 1.5 minutes while depolarizing the postsynaptic cell at 0 mV. All electrophysiological data were collected with pCLAMP software (Molecular Devices). Immunohistochemistry For the immunostaining protocol, hippocampal slice cultures were fixed with 4% paraformaldehyde for 24 hours washed in PBS and blocked with 5% horse serum for 2 hours. Sections were then incubated for 48 hours at 4° C. with primary antibody. […]
However, this form of depression may in principle be due to Aβ exposure, to intracellular fragments derived from APP processing, or a combination thereof. To test the role of PTEN specifically in the effects of neuron-secreted Aβ, synaptic dysfunctions were monitored in untransfected cells neighboring APPswe/lnd-expressing neurons. […]

[3] = system: hippocampal CA3 and CA1 cells from acute slices; assay: fEPSP input-output curve (basal synaptic transmission) in acute hippocampal slices exposed to protofibrillar Aβ42; type: cell-based, mice
Method: as §1
A concentric bipolar platinum-iridium stimulation electrode and a low-resistance glass recording microelectrode filled with aCSF (3-4 MΩ resistance) were placed in CA1 stratum radiatum to record the extracellular field excitatory postsynaptic potentials (fEPSPs). For each slice, an input-output curve was recorded to compare basal synaptic transmission at different conditions. This curve was also used to set the baseline fEPSP at ≈30% (for LTP experiments) or ≈50% (for LTD experiments) of maximal slope. Baseline stimulation was delivered every 15 seconds (0.01 ms duration pulses) for at least 20 minutes before beginning the experiment to ensure stability of the response. LTP was induced by using θ-burst stimulation (4 pulses at 100 Hz, with the bursts repeated at 5 Hz and each tetanus including three 10-burst trains separated by 15 seconds). LTD was induced using 900 pulses at 1 Hz. Responses were recorded for 1 hour after induction of LTP or LTD.
Dissection solution (employed for slicing) composition: 10 mM D-glucose, 4 mM KCl, 26 mM NaHCO3, 233.7 mM sucrose, 5 mM MgCl2, 1:1000 Phenol Red. Artificial CSF (employed for recovery and recording) composition: 119 mM NaCl, 2.5 mM KCl, 1 mM NaH2PO4, 11 mM glucose, 1.2 mM MgCl2, 2.5 mM CaCl2. Osmolarity was adjusted to […].
For the first approach, protofibrillar Aβ was prepared by promoting aggregation under high-salt conditions (258 μM Aβ42, room temperature incubation (Jan, et al. (2010) Nat. Protoc. 5:1186-1209). The kinetics of Aβ42 aggregation were followed by thioflavin T fluorescence and SDS-PAGE western blot analysis with the N-terminal anti-Aβ antibody 6E10. Also, the heterogeneous nature of these Aβ42 assemblies was evidenced by electron microscopy. Synaptic function was assessed by electrophysiological recordings of field excitatory postsynaptic potential (fEPSPs) between hippocampal CA3 and CA1 cells from acute slices prepared from 5-month-old mice. The results indicated a ≈60% decrease in the magnitude of synaptic transmission (input-output curve) when slices were incubated for 2 hours in aCSF containing pathogenic protofibrillar Aβ42 species (1 μM). This decrease in the basal synaptic transmission was prevented when Aβ was added to slices that were preincubated with the PTEN inhibitor (50 nM VO-OHpic) for 1 hour (VO-OHpic and Aβ were also present in the perfusion solution during electrophysiological recordings). VO-OHpic alone had no effect on basal synaptic transmission. […] The potency and specificity of this inhibitor have been documented previously (Rosivatz, et al. (2006) ACS Chem. Biol. 1:780-790).
The effect of these peptides on Aβ-treated neurons was subsequently tested.

[4] = system: PTEN; assay: phospho-Akt and phospho-Tyr levels in acute hippocampal slices; type: cell-based, mice

## O=C(O)c1ncccc1O.O=C(O)c1ncccc1O.[O]=[V][O-] [VO-OHpic]
[1]
  LTP expression in presence of Aβ42: rescued the expression of LTP
[2]; P=0.01
  LTP potentiation, APPswe/lnd-EGFP infected cells: 220%
[2]; uninfected neurons adjacent to infected cells, P=0.0006
  LTP potentiation, uninfected cells exposed to Aβ: 339%
[2]; slices not exposed to APPswe/lnd-EGFP virus
  magnitude of LTP in control slices: did not affect the magnitude of LTP
[3]; 50 nM VO-OHpic preincubated 1 hour, then 1 μM protofibrillar Aβ42 for 2 hours
  Aβ42-induced decrease in basal synaptic transmission: prevented
[3]; VO-OHpic alone, no Aβ
  basal synaptic transmission, inhibitor alone: no effect
[4]
  phospho-Akt (PIP3 downstream effector): upregulation
  phospho-Tyr levels (specificity versus Tyr phosphatases): lack of effect

Reference: US20170165317A1, “METHOD FOR MITIGATING OR ALLEVIATING SYNAPTIC AND COGNITIVE DEFICITS” (Trustees of Dartmouth College, priority 2013, published 2017)
